Structures can show the parent of a compound that is named as a salt.
How the values were obtained:
[1] = system: PFF induced HEK293 TREX α-syn A53T cells; assay: Cytotoxicity by visual inspection of treated cells; type: cell-based, human; conditions: 1 μM
Procedure: (§1) Targeted degradation of sarkosyl insoluble (SI) α-synuclein via exemplary bifunctional compounds was assessed by MJFF-14-6-4-2 conformation specific ELISA following treatment of PFF induced A53T α-synuclein overexpressing HEK293 cells with 1 μM exemplary compound compared to DMSO vehicle control. Degradation activity of the exemplary compounds of Table 2 is expressed as % DMSO control. […] However, the effect of bifunctional targeting degraders, shown in FIG. 5, required the intact E3 ligase binding domain.
(§2) Trex293 (doxycycline inducible) cells stably expressing human α-SYN A53T (monoclonal) were plated in poly-d-lysine coated T-75 tissue culture flasks (4.5×10e6 cells/flask) in DMEM with 10% tet-free FBS, 10 μg/ml blasticidin, and 400 μg/ml zeocin. After an overnight incubation, the cells were induced to express α-SYN by treatment with 1 μg/ml doxycycline (Dox) and exemplary bifunctional compound. After a 24 hour dox induction, the medium on the cells was changed to Opti-MEM followed by treatment with α-SYN pre-formed fibrils** (PFFs)(5 μg/flask) pre-complexed with Lipofectamine 2000 transfection reagent for 4 hours. After PFF treatment, the medium was changed back to DMEM with the supplements described above and exemplary bifunctional compound for 48 hours.
To assess targeted degradation of sarkosyl insoluble α-synuclein, exemplary bifunctional compounds designed to bind to oligomeric α-synuclein were tested at 1 μM in PFF induced HEK293 TREX α-syn A53T cells.

[2] = biological target: T1, sarkosyl insoluble (SI) α-synuclein (human α-SYN A53T) (Homo sapiens, UniProt P37840, A53T); assay: MJFF-14-6-4-2 conformation specific ELISA of sarkosyl insoluble α-synuclein after compound treatment; type: cell-based; conditions: 1 μM compound; protein remaining relative to DMSO control; PFF induced A53T α-synuclein overexpressing HEK293 cells; read-out: Protein Degradation at 1 μM
T1 construct: expressed in transfected cells
Procedure: as §1, §2
Cell pellets were harvested from each flask using 0.25% trypsin followed by spinning at 500×g for 5 minutes. Each pellet was resuspended in 1 ml cold buffer H [Buffer H-10 mM Tris, 1 mM EGTA, 0.8M NaCl, 10% sucrose, pH7.4 containing 1× protease and phosphatase inhibitors] containing protease and phosphatase inhibitors. The resuspended pellets were incubated on ice for 20 minutes followed by centrifugation at 27,200×g for 20 minutes at 4° C. The supernatants were adjusted to 1% sarkosyl (Sigma) and 1% 2-mercaptoethanol followed by incubation for 1 hour at 37° C. on an orbital shaker set to 400 rpm. The samples were then spun at 150,000×g for 35 minutes at room temperature. The supernatant was removed and saved as the soluble fraction and the insoluble pellet was resuspended in 25 μl tris-buffered saline (TBS). Protein concentrations were determined by NanoDrop, and normalized protein concentrations were analyzed by WES capillary electrophoresis as well as an α-SYN oligomer ELISA.
Recombinant human α-SYN was purchased from Proteos. 1 mg aliquots were supplied at 10 mg/ml in 10 mM Tris, 50 mM NaCl, pH7.6. The aliquot was thawed on ice followed by centrifugation at 4° C. for 10 minutes at 12,000×g to pellet any insoluble material. The supernatant was removed and quantitated on a NanoDrop (A280) using Beer's Law (ε=5960 M-1 cm-1). The concentration was adjusted to 5 mg/ml in PBS followed by vortexing for 3 seconds to mix contents. The mixture was incubated in an orbital shaker set to 37° C. at 1,000 rpm for 7 days followed by aliquoting into individual use vials. Prior to addition to cells, an aliquot was thawed at room temperature, then diluted to 1 mg/ml with phosphate-buffered saline (PBS) followed by sonication for 1 minute with a probe sonicator (output 1; 90% duty cycle) in a chem hood.
Coming Costar high bind black well plates were coated with MJFR 14-6-4-2 (Abcam) at 1 μg/ml for 1 hour at 37° C. followed by washing with 1×TBS+0.1% tween-20 (TBS-T) then blocking with 3% bovine serum albumin (BSA) in TBS. After re-washing, samples were added after dilution in diluent (1% BSA/TBS-T). Non-sonicated PFF was used to generate a standard curve. The plates were incubated with sample overnight at 4° C. with shaking. The following day alkaline phosphatase (AP) conjugated MJFR 14-6-4-2 was added to the plate without washing followed by incubation at room temperature for 1 hour with shaking or rocking. The plates were then re-washed and substrate (CDP star alkaline phosphatase detection reagent) was added followed by a 30 minute incubation at room temperature. The plate was read on a luminescence plate reader. The counts were log transformed and read off the standard curve. […]

remaining activity at 1 µM [2] [%]	SMILES	Cytotoxicity at the concentration tested [1]	other results
	Cc1ncsc1-c1ccc([C@H](C)NC(=O)[C@@H]2C[C@@H](O)CN2C(=O)[C@@H](NC(=O)COCCOCCOc2ccc(CN3C(=O)C(=CC=Cc4ccc([N+](=O)[O-])cc4)c4ccccc43)cc2)C(C)(C)C)cc1 (single isomer, unassigned) [Exemplary Compound 6]	without any visual impact to cell health	
35 to 70	CNc1ccc(-c2nc3ccc(OCCOCCOCCOCC(=O)N[C@H](C(=O)N4C[C@H](O)C[C@H]4C(=O)N[C@@H](C)c4ccc(-c5scnc5C)cc4)C(C)(C)C)cc3s2)cc1 [Exemplary Compound 2, (2S,4R)-1-((S)-2-(tert-butyl)-14-((2-(4-(methylamino)phenyl)benzo[d]thiazol-6-yl)oxy)-4-oxo-6,9,12-trioxa-3-azatetradecanoyl)-4-hydroxy-N—((S)-1-(4-(4-methylthiazol-5-yl)phenyl)ethyl)pyrrolidine-2-carboxamide]	without any visual impact to cell health	
< 35	CNc1ccc(-c2nc3ccc(OCCOCCOCCOCCOCCOCCOCC(=O)N[C@H](C(=O)N4C[C@H](O)C[C@H]4C(=O)N[C@@H](C)c4ccc(-c5scnc5C)cc4)C(C)(C)C)cc3s2)cc1 [Exemplary Compound 5, (2S,4R)-1-((S)-2-(tert-butyl)-23-((2-(4-(methylamino)phenyl)benzo[d]thiazol-6-yl)oxy)-4-oxo-6,9,12,15,18,21-hexaoxa-3-azatricosanoyl)-4-hydroxy-N-((S)-1-(4-(4-methylthiazol-5-yl)phenyl)ethyl)pyrrolidine-2-carboxamide]	without any visual impact to cell health	
> 120	Cc1ncsc1-c1ccc([C@H](C)NC(=O)[C@@H]2C[C@@H](O)CN2C(=O)[C@@H](NC(=O)COCCOCCOCCOc2ccc3c(c2)Sc2cc([N+](=O)[O-])ccc2N3)C(C)(C)C)cc1 [Exemplary Compound 9, (2S,4R)-1-((S)-2-(tert-butyl)-14-((7-nitro-10H-phenothiazin-3-yl)oxy)-4-oxo-6,9,12-trioxa-3-azatetradecanoyl)-4-hydroxy-N-((S)-1-(4-(4-methylthiazol-5-yl)phenyl)ethyl)pyrrolidine-2-carboxamide]	cytotoxicity	Cytotoxicity at the concentration tested ([1]; listed as 9): cytotoxic
> 120	Cc1ncsc1-c1ccc([C@H](C)NC(=O)[C@@H]2C[C@@H](O)CN2C(=O)[C@@H](NC(=O)COCCOCCOCCOCCOCCOCCOc2ccc3c(c2)Sc2cc([N+](=O)[O-])ccc2N3)C(C)(C)C)cc1 [Exemplary Compound 12, (2S,4R)-1-((S)-2-(tert-butyl)-23-((7-nitro-10H-phenothiazin-3-yl)oxy)-4-oxo-6,9,12,15,18,21-hexaoxa-3-azatricosanoyl)-4-hydroxy-N-((S)-1-(4-(4-methylthiazol-5-yl)phenyl)ethyl)pyrrolidine-2-carboxamide]	cytotoxicity	Cytotoxicity at the concentration tested ([1]; listed as 12): cytotoxic
	O=C1CCC(N2C(=O)c3ccc(OCCOCCOCCOCCOc4ccc5c(c4)Sc4cc([N+](=O)[O-])ccc4N5)cc3C2=O)C(=O)N1 (stereo not shown) [Exemplary Compound 13, 2-(2,6-dioxo-3-piperidyl)-5-[2-[2-[2-[2-[(7-nitro-10H-phenothiazin-3-yl)oxy]ethoxy]ethoxy]ethoxy]ethoxy]isoindoline-1,3-dione]	cytotoxicity	Cytotoxicity at the concentration tested ([1]; listed as 13): cytotoxic
> 120	COc1ccc2nc(-c3ccc(N4CC(OC5CCN(CCCCCOc6ccc7c(c6)C(=O)N(C6CCC(=O)NC6=O)C7=O)CC5)C4)cc3)sc2c1 (stereo not shown) [Exemplary Compound 25, 2-(2,6-dioxopiperidin-3-yl)-5-([5-[4-([1-[4-(6-methoxy-1,3-benzothiazol-2-yl)phenyl]azetidin-3-yl]oxy)piperidin-1-yl]pentyl]oxy)-2,3-dihydro-1H-isoindole-1,3-dione]	cytotoxicity	Cytotoxicity at the concentration tested ([1]; listed as 25): cytotoxic
35 to 70	COc1cc(/C=C/c2ccc3cc(OCCOCCOCCOCC(=O)N[C@H](C(=O)N4C[C@H](O)C[C@H]4C(=O)N[C@@H](C)c4ccc(-c5scnc5C)cc4)C(C)(C)C)ccc3n2)ccn1 [Exemplary Compound 35, (2S,4R)-1-((S)-2-(tert-butyl)-14-((2-((E)-2-(2-methoxypyridin-4-yl)vinyl)quinolin-6-yl)oxy)-4-oxo-6,9,12-trioxa-3-azatetradecanoyl)-4-hydroxy-N—((S)-1-(4-(4-methylthiazol-5-yl)phenyl)ethyl)pyrrolidine-2-carboxamide]		
> 120	COc1cc(/C=C/c2ccc3cc(OCCOCCOCCOCCOc4ccc5c(c4)C(=O)N(C4CCC(=O)NC4=O)C5=O)ccc3n2)ccn1 (stereo not shown) [Exemplary Compound 36, 2-(2,6-dioxo-3-piperidyl)-5-[2-[2-[2-[2-[[2-[(E)-2-(2-methoxy-4-pyridyl)vinyl]-6-quinolyl]oxy]ethoxy]ethoxy]ethoxy]ethoxy]isoindoline-1,3-dione]		
70 to 120	COc1cc(/C=C/c2ccc3cc(OCCOCCOCCOc4ccc5c(c4)C(=O)N(C4CCC(=O)NC4=O)C5=O)ccc3n2)ccn1 (stereo not shown) [Exemplary Compound 47, (E)-2-(2,6-dioxopiperidin-3-yl)-5-(2-(2-(2-((2-(2-(2-methoxypyridin-4-yl)vinyl)quinolin-6-yl)oxy)ethoxy)ethoxy)ethoxy)isoindoline-1,3-dione]		

SMILES	remaining activity at 1 µM [2] [%]	Cytotoxicity at the concentration tested [1]	other results
O=C1CCC(N2C(=O)c3ccc(N4CCN(CCCO[C@H]5C[C@H](Oc6ccc7c(c6)Sc6cc([N+](=O)[O-])ccc6N7)C5)CC4)cc3C2=O)C(=O)N1 (stereo partly shown) [Exemplary Compound 30, 2-(2,6-dioxo-3-piperidyl)-5-[4-[3-[3-[(7-nitro-10H-phenothiazin-3-yl)oxy]cyclobutoxy]propyl]piperazin-1-yl]isoindoline-1,3-dione formate]	35 to 70		
O=C1CCC(N2C(=O)c3ccc(OCCCCCN4CCC(O[C@H]5C[C@H](Oc6ccc(CN7C(=O)C(=CC=Cc8ccc([N+](=O)[O-])cc8)c8ccccc87)cc6)C5)CC4)cc3C2=O)C(=O)N1 (stereo partly shown) [Exemplary Compound 31, 2-(2,6-dioxopiperidin-3-yl)-5-((5-(4-((1r,3r)-3-(4-(((Z)-3-((E)-3-(4-nitrophenyl)allylidene)-2-oxoindolin-1-yl)methyl)phenoxy)cyclobutoxy)piperidin-1-yl)pentyl)oxy)isoindoline-1,3-dione]	70 to 120		
Cc1ncsc1-c1ccc([C@H](C)NC(=O)[C@@H]2C[C@@H](O)CN2C(=O)[C@@H](NC(=O)CN2CCN(CCN3CCC(O[C@H]4C[C@H](Oc5ccc6c(c5)Sc5cc([N+](=O)[O-])ccc5N6)C4)CC3)CC2)C(C)(C)C)cc1 [Exemplary Compound 34, (2S,4R)-1-((S)-3,3-dimethyl-2-(2-(4-(2-(4-((1r,3r)-3-((7-nitro-10H-phenothiazin-3-yl)oxy)cyclobutoxy)piperidin-1-yl)ethyl)piperazin-1-yl)acetamido)butanoyl)-4-hydroxy-N-((S)-1-(4-(4-methylthiazol-5-yl)phenyl)ethyl)pyrrolidine-2-carboxamide]	< 35		
